Experimental data published in patent publication US20200405715A1, “COMPOSITIONS AND METHODS FOR TREATING CANCER AND INFLAMMATORY DISEASES” (University of Pittsburgh - Of the Commonwealth System of …, priority 2016, published 2020).

What was measured:
HepG2 cells [1] = assay: HepG2 cell proliferation (CellTiter-Glo Luminescent Cell Viability Assay); assay type: cell-based; settings: 96 h
Method: Cell proliferation were then measured by CellTiter-Glo® Luminescent Cell Viability Assay (n=3).
4KHepG2 cells were seeded in 96 well plates for overnight. Compounds listed in Table 3 were then added to each well at various concentrations. 96 h later, cell proliferation was measured by ATP production using a CellTiter-Glo® Luminescent Cell Viability Assay (Promega).
3-(pentylamino)-5-phenylcyclohex-2-en-1-one was modified by adding a different sidechain. These novel compounds were tested further in an in vitro proliferation assay using ATPLite Cell Proliferation kit. […] Others lost activity in reducing Cullin Neddylation and inhibiting cell proliferation (FIG. 3C-D).

[2] = test system: Clvd-caspase3 and Clvd-PARP; assay: Apoptosis markers, protein immunoblotting in HepG2 cells; assay type: cell-based
[3] = test system: SCF substrates p27, NRF2 and CDT1; assay: SCF substrates, protein immunoblotting in HepG2 cells; assay type: cell-based; settings: 10 μM, various times (FIG. 6A)
HepG2 cells [4] = assay: Cell cycle analysis by BrdU uptake and 7-AAD staining; assay type: cell-based
Method: (§1) HepG2 cells were treated with 3-(decylamino)-5-phenylcyclohex-2-en-1-one for 36 h with various concentrations. Cells were then analyzed by BrdU uptake and 7-AAD staining, G0, G1, S, G2/M phase cells were then quantitated and graphed. […] Confluent monolayers of HepG2 cells were injured and cellular migration into the wound was determined under vehicle or 3-(decylamino)-5-phenylcyclohex-2-en-1-one treated condition. 36 h later cells were then observed under white field microscopy and recovery of cells to wound heal was quantified and graphed (right).
(§2) HepG2 cells were treated with 3-(decylamino)-5-phenylcyclohex-2-en-1-one at 10 μM for various times. At each time point, cells were analyzed by BrdU uptake and 7-AAD staining, G0, G1, S, G2/M phase cells were then quantitated and graphed. […] Cells were then observed under white field microscopy.

HepG2 cells [5] = assay: Wound-healing assay; assay type: cell-based; settings: 36 h (FIG. 5C)
Method: as §1

HepG2 cells [6] = assay: Cell morphology under white field microscopy; assay type: cell-based; settings: 10 μM, time dependent (FIG. 6C)
Method: as §2

HepG2 tumor implants = HepG2 tumor implants in nude mice, tumor growth; assay type: in vivo, athymic nude mice; settings: compounds in drinking water (15 mg/kg/d), start at tumor size 0.1 cm^3 (FIG. 8)
Method: Mice were implanted with HepG2 cells (10^6 cells) through subcutaneous injection. 2 weeks later, once tumor size reaches ˜0.1 cm^3, mice were randomized and the treatment began by adding compounds to the drinking water ([…]). Tested compounds were: Vehicle, 3-(decylamino)-5-phenylcyclohex-2-en-1-one (BC1558), 3-(dibenzylamino)-5-phenylcyclohex-2-en-1-one (BC1634) or 3-((4-phenoxybenzyl)amino)-5-phenylcyclohex-2-en-1-one (BC1653). Tumor volume measurements over time were graphed (n=4-5 mice/group, *P<0.05 versus Vehicle).
As a complementary in vivo model, tumorogenicity was further assessed after implanting HepG2 cells along with 3-(decylamino)-5-phenylcyclohex-2-en-1-one, 3-(dibenzylamino)-5-phenylcyclohex-2-en-1-one, 3-((4-phenoxybenzyl)amino)-5-phenylcyclohex-2-en-1-one treatment in athymic nude mice. Mice were implanted with HepG2 cells through subcutaneous injection. Two weeks later, once tumor size reached 0.1 cm^3, the mice were randomized and the treatment began by adding compounds to the drinking water (15 mg/kg/d).

HepG2 tumor tissue = assay: PD/PK study, tumor tissue immunoblotting after single oral dose; assay type: in vivo, nude mice
Method: Nude mice were implanted with HepG2 cells (10^6 cells) through subcutaneous injection. Five weeks later, once tumor size reaches 0.3 cm^3, mice were randomized and given 1 dose of 3-(decylamino)-5-phenylcyclohex-2-en-1-one (15 mg/kg) by oral gavage. Mice were then euthanized, plasma and tumor tissue were isolated for analysis. Tumor tissue were grinded and assayed for protein immunoblotting (n=3-4).
A PD/PK study was also performed. Mice were implanted with HepG2 cells (10^6 cells) through subcutaneous injection. 5 weeks later, once tumor size reached 0.3 cm^3, mice were randomized and given 1 dose of 3-(decylamino)-5-phenylcyclohex-2-en-1-one (15 mg/kg) by oral gavage (FIG. 9A). […] NRF2 protein levels peaked 4 h after administration of BC1558 and started to decline by 8-24 h post-dose. The timing of CDT1 accumulation was compared to NRF2, peaking 4 h after 3-(decylamino)-5-phenylcyclohex-2-en-1-one administration.

PBMC cells = assay: LPS-induced TNF release from PBMC cells (ELISA); assay type: cell-based; settings: various concentrations for 2 h, then LPS (10 ng/ml) for 12 h (FIG. 10A)
Method: Cells were then treated with LPS (10 ng/ml) for additional 2 h. Media were then collected and TNF concentration was determined by ELISA. […] Lung tissue was collected and assayed for immunoblotting. Culture media was collected and assayed for cytokines.
Since SCF machinery is believed to be essential for NF-kB activation, it was investigated whether the DCN1 inhibitors could affect inflammation. 3-(decylamino)-5-phenylcyclohex-2-en-1-one was first tested in PBMCs cells. Briefly, PBMC cells were treated with 3-(decylamino)-5-phenylcyclohex-2-en-1-one at various concentrations for 2 h before exposed to LPS (10 ng/ml) for 12 h.

[7] = test system: DSS induced colonic inflammation; assay: DSS induced colitis model; assay type: in vivo, C57BL6 mice; settings: DSS in water
Method: FIGS. 12A-12D show DCN1 inhibitors reduce DSS induced colonic inflammation, specifically the following experimental results C57BL6 mice were fed with water ad lib containing 3% dextran sulfate sodium (DSS) for six days. DCN1 inhibitors were administered into drinking water at 10 mg/kg/d, starting at day 1. […] The data represent n=4 mice/group, *P<0.05 versus CON.
Also tested were 3-(decylamino)-5-phenylcyclohex-2-en-1-one (BC1558), 3-(dibenzylamino)-5-phenylcyclohex-2-en-1-one (BC1634) and 3-((4-phenoxybenzyl)amino)-5-phenylcyclohex-2-en-1-one (BC1653) in a mouse colitis model to confirm its anti-inflammatory activity. Briefly, C57BL6 mice were fed with water containing 3.5% […] and colonic length was measured. DSS produced a significant decrease in colon length in mice, consistent with colonic inflammation (FIG. 12A-B). […] Colonic tissue cytokine levels were further analyzed.

[8] = single dose 15 mg/kg oral gavage, tumor tissue

Q: Which inhibiting cell proliferation (HepG2 cells [1]; various concentrations (FIG. 3D)) does the source give for `CCCCCCCCCCNC1=CC(=O)CC(c2ccccc2)C1` (stereo not shown) [BC1558, 3-(decylamino)-5-phenylcyclohex-2-en-1-one] here?
A: Its inhibiting cell proliferation is “exhibited activity”.

Q: What about the IC50 (HepG2 cells [1]; Homo sapiens, ATP production, n=3, read-out: IC50Proliferation) of the same compound?
A: Its IC50 is under 1000 nM.

Q: What about the “apoptosis markers Clvd-caspase3 and Clvd-PARP” value ([2]; 10 μM, various times (FIG. 6A)) of the same compound?
A: Its value is “effectively increased”.

Q: And the “apoptosis markers Clvd-caspase3 and Clvd-PARP” value ([2]; 48 h, various concentrations (FIG. 5A))?
A: The value was “effectively increased”.

Q: What about the “SCF substrates p27, NRF2 and CDT1” value [3] of the same compound?
A: The value was “increased”.

Q: And the “G0 and G2/M phases” value (HepG2 cells [4]; 10 μM, at 16 h (FIG. 6B))?
A: Its value is “increased”.

Q: What about the S phase (HepG2 cells [4]; 10 μM, at 16 h (FIG. 6B)) of the same compound?
A: Its S phase is “effectively decreased”.

Q: And the “G0 and G2/M phases” value (HepG2 cells [4]; 36 h, dose dependent (FIG. 5B))?
A: Its value is “increased”.

Q: What about the S phase (HepG2 cells [4]; 36 h, dose dependent (FIG. 5B)) of the same compound?
A: The S phase was “effectively decreased”.

Q: What about the hepG2 cells migration (HepG2 cells [5]) of the same compound?
A: Its hepG2 cells migration is “showed inhibition”.

Q: What about the cell morphology (HepG2 cells [6]) of the same compound?
A: The cell morphology was “accumulation of rounded, apoptotic hepG2 cells”.

Q: What about the “tumor size compared to the vehicle” value (HepG2 tumor implants) of the same compound?
A: The value was “Significantly reduced tumor size”.

Q: What about the “phosphorylated CHK1 (Ser 317), DNA damage in the tumor” value (HepG2 tumor tissue; at 8 h after a single administration, 15 mg/kg oral gavage) of the same compound?
A: The value was “increased levels”.

Q: What about the “steady state levels of NRF2 and CDT1” value (HepG2 tumor tissue; [8]) of the same compound?
A: Its value is “time-dependent increase”.

Q: What about the “time at which NRF2 protein levels started to decline post-dose” value (HepG2 tumor tissue; [8]) of the same compound?
A: The value was 8 to 24 h.

Q: And the “time of maximal effect on NEDD8-cullin levels post-dose” value (HepG2 tumor tissue; [8])?
A: The value was 2 to 4 h.

Q: What about the “time of peak CDT1 accumulation after administration” value (HepG2 tumor tissue; [8]) of the same compound?
A: Its value is 4 h.

Q: And the “time of peak NRF2 protein levels after administration” value (HepG2 tumor tissue; [8])?
A: Its value is 4 h.

Q: And the “time to decrease of NEDD8-cullin levels after administration” value (HepG2 tumor tissue; single dose 15 mg/kg oral gavage, tumor tissue (FIG. 9B))?
A: The value was at most 1 h.

Q: And the “LPS-induced TNF release from PBMC cells” value (PBMC cells)?
A: The value was “potently inhibited”.

Q: What about the “colon length compared vehicle” value ([7]; compounds in drinking water at 10 mg/kg/d (FIG. 12A-B)) of the same compound?
A: Its value is “significant increase”.

Q: And the “IL1β and IL6 levels in colonic tissue compared to vehicle” value ([7]; compounds in drinking water at 10 mg/kg/d (FIG. 12C-D))?
A: Its value is “large reduction”.
